Test results reported in US12371454B2, “Cyclic peptide compound having Kras inhibitory action” (priority 2019, dated 2025).
Starred links: 1 amine or outer side, 2 acyl side, 3 side chain; linkers in the order of their positions; H or OH if unused. Positions of bridges follow the written chain, without caps; N, C: chain ends. Non-standard residues stand in square brackets, D forms with d. Residues, ends and D or L forms follow the SMILES beside them. *: point of attachment. hPhe(3-Cl-4-CF3) = N[C@@H](CCc1ccc(C(F)(F)F)c(Cl)c1)C(=O)O; 3Oxa8azabicyclo(3.2.1)octane = C1CC2COCC1N2*; NMePhe(4-Cl) = CN[C@@H](Cc1ccc(Cl)cc1)C(=O)O; NMePhe(4-Me) = CN[C@@H](Cc1ccc(C)cc1)C(=O)O; NMePhe(4-F) = CN[C@@H](Cc1ccc(F)cc1)C(=O)O; hPhe(4-Cl) = N[C@@H](CCc1ccc(Cl)cc1)C(=O)O; NMedβ3hAla = C[C@H](CC(=O)[*:2])N(C)[*:1]; NMeAla(cPent) = CN[C@@H](CC1CCCC1)C(=O)O; NMePhe(2-F) = CN[C@@H](Cc1ccccc1F)C(=O)O; NMeGly(cPent) = CN[C@H](C(=O)O)C1CCCC1; Phe(3-I) = N[C@@H](Cc1cccc(I)c1)C(=O)O; NMeY = CN[C@@H](Cc1ccc(O)cc1)C(=O)O; NMeCha = CN[C@@H](CC1CCCCC1)C(=O)O; NMeChg = CN[C@H](C(=O)O)C1CCCCC1; NMeD = CN[C@@H](CC(=O)O)C(=O)O; NMeL = CN[C@@H](CC(C)C)C(=O)O; NMeNva = CCC[C@H](NC)C(=O)O; NMeV = CN[C@H](C(=O)O)C(C)C; d(β3hA) = C[C@@H](N)CC(=O)O; NMeAbu = CC[C@H](NC)C(=O)O; dIva = CC[C@@](C)(N)C(=O)O; NMeS = CN[C@@H](CO)C(=O)O; Morpholide = C1CN(*)CCO1; NMeA = CN[C@@H](C)C(=O)O; Nle = CCCC[C@H](N)C(=O)O; Piperidide = C1CCN(*)CC1; Pyrrolidide = C1CCN(*)C1; Ac5c = NC1(C(=O)O)CCCC1; Aze = O=C(O)[C@@H]1CCN1; Sar = CNCC(=O)O; Propyl = CCC*

Assays:
[1] = target: T1, Kras and SOS1 (biotin-tagged human Kras loaded with GDP, His-tagged human SOS1) (Homo sapiens, UniProt P01116, G12D); experiment: Protein-protein interaction inhibition between Kras and SOS1 (KrasGl2D-SOS PPI) using AlphaScreen; format: binding; settings: AlphaScreen; biotin-tagged human Kras loaded with GDP, His-tagged human SOS1; read-out: KRAS G12D-SOS PPI IC50
T1 construct: made in house; host or cells: E. coli (stated for Kras only)
Outline: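 Read-out is acceptor-bead light at 520-620 nm, arising when 680 nm-irradiated nickel donor beads pass singlet oxygen to streptavidin acceptors. The bead pair links His-tagged SOS1 with biotin-tagged, GDP-bound Kras from E. coli.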

[2] = system: Human pancreatic cancer cell line AsPC-1; experiment: Measurement of AsPC-1 cell growth inhibition (AsPC-1 CGI); format: cell-based; settings: 96 h
Outline: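 AsPC-1 cells in 15% FBS RPMI-1640 were exposed to test compound for 96 hours at 37° C, with CellTiter-Glo as endpoint.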

T1 sequence (P01116 1-188 isoform P01116-2 G12D): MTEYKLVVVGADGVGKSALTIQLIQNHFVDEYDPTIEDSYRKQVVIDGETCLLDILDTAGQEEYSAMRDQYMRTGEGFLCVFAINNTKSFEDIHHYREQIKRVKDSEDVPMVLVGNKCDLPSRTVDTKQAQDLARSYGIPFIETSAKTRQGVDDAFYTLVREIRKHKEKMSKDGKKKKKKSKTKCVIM

Structure (SMILES)	IC50 [1]	IC50 [2]
CCCC[C@@H]1NC(=O)[C@H](Cc2cccc(I)c2)NC(=O)CN(C)C(=O)[C@H](Cc2ccc(Cl)cc2)N(C)C(=O)CN(C)C(=O)CN(C)C(=O)[C@H]([C@@H](C)CC)NC(=O)[C@H](CC(C)C)N(C)C(=O)C[C@@H](C(=O)N2CCCCC2)N(C)C(=O)[C@H](CC(C)C)NC(=O)[C@H](Cc2ccccc2F)N(C)C1=O [Compound 1035] ([NMeL]I[Sar][Sar][NMePhe(4-Cl)][Sar][Phe(3-I)][Nle][NMePhe(2-F)]L[NMeD]-Piperidide; lactam N-11)	11 nM	100 to 500 nM
CCCOC[C@H]1C(=O)N(C)CC(=O)N[C@@H](CCc2ccc(C(F)(F)F)c(Cl)c2)C(=O)N2CCC[C@H]2C(=O)NC2(CCCC2)C(=O)N(C)[C@@H](C2CCCCC2)C(=O)N(C)[C@H](C(=O)N2CCOCC2)CC(=O)N(C)[C@@H](CCC)C(=O)N[C@@H]([C@@H](C)CC)C(=O)N(C)CC(=O)N(C)CC(=O)N1C [Compound 1949] ([NMeNva]I[Sar][Sar][NMeS](Propyl)[Sar][hPhe(3-Cl-4-CF3)]P[Ac5c][NMeChg][NMeD]-Morpholide; lactam N-11)	0.6 nM	100 to 500 nM
CC[C@H](C)[C@@H]1NC(=O)[C@H](CC(C)C)N(C)C(=O)C[C@@H](C)NC(=O)[C@H](C(C)C)N(C)C(=O)C2(CCCC2)NC(=O)[C@@H]2CCCN2C(=O)[C@H](CCc2ccc(C(F)(F)F)c(Cl)c2)NC(=O)CN(C)C(=O)[C@H](Cc2ccc(OC)cc2)N(C)C(=O)CN(C)C(=O)CN(C)C1=O [Compound 1605] (cyclo([Ac5c][NMeV][d(β3hA)][NMeL]I[Sar][Sar][NMeY](Me)[Sar][hPhe(3-Cl-4-CF3)]P))	12 nM	100 to 500 nM
CC[C@H](C)[C@@H]1NC(=O)[C@H](CC(C)C)N(C)C(=O)C[C@@H](C)N(C)C(=O)[C@H](C(C)C)N(C)C(=O)[C@@](C)(CC)NC(=O)[C@@H]2CCCN2C(=O)[C@H](CCc2ccc(C(F)(F)F)c(Cl)c2)NC(=O)CN(C)C(=O)[C@H](CC2CCCCC2)N(C)C(=O)CN(C)C(=O)CN(C)C1=O [Compound 223] (cyclo(I[Sar][Sar][NMeCha][Sar][hPhe(3-Cl-4-CF3)]P[dIva][NMeV][NMedβ3hAla][NMeL]))	18 nM	100 to 500 nM
CC[C@H](C)[C@@H]1NC(=O)[C@H](CC2CCCC2)N(C)C(=O)C[C@@H](C(=O)N2CCCCC2)N(C)C(=O)[C@H](C(C)C)N(C)C(=O)C2(CCCC2)NC(=O)[C@@H]2CCCN2C(=O)[C@H](CCc2ccc(C(F)(F)F)c(Cl)c2)NC(=O)CN(C)C(=O)[C@H](CC2CCCCC2)N(C)C(=O)CN(C)C(=O)CN(C)C1=O [Compound 60] ([NMeAla(cPent)]I[Sar][Sar][NMeCha][Sar][hPhe(3-Cl-4-CF3)]P[Ac5c][NMeV][NMeD]-Piperidide; lactam N-11)	7.9 nM	100 to 500 nM
CC[C@H](C)[C@@H]1NC(=O)[C@H](CC(C)C)N(C)C(=O)C[C@@H](C)N(C)C(=O)[C@H](C(C)C)N(C)C(=O)C2(CCCC2)NC(=O)[C@@H]2CCCN2C(=O)[C@H](CCc2ccc(C(F)(F)F)c(Cl)c2)NC(=O)CN(C)C(=O)[C@H](COc2ccccc2Cl)N(C)C(=O)CN(C)C(=O)CN(C)C1=O [Compound 1589]	39 nM	100 to 500 nM
CC[C@H](C)[C@@H]1NC(=O)[C@H](CC(C)C)N(C)C(=O)C[C@@H](C(=O)N2CCCC2)N(C)C(=O)[C@H](C2CCCCC2)N(C)C(=O)C2(CCCC2)NC(=O)[C@@H]2CCCN2C(=O)[C@H](CCc2ccc(Cl)cc2)NC(=O)CN(C)C(=O)[C@H](CC2CCCCC2)N(C)C(=O)CN(C)C(=O)CN(C)C1=O [Compound 1968] ([NMeL]I[Sar][Sar][NMeCha][Sar][hPhe(4-Cl)]P[Ac5c][NMeChg][NMeD]-Pyrrolidide; lactam N-11)	1.2 nM	50 to 100 nM
CC[C@H](C)[C@@H]1NC(=O)[C@H](CC(C)C)N(C)C(=O)C[C@@H](C(=O)N(C)C)N(C)C(=O)[C@H](C2CCCC2)N(C)C(=O)C2(CCCC2)NC(=O)[C@H](Cc2ccc(F)cc2)N(C)C(=O)[C@H](CCc2ccc(C(F)(F)F)c(Cl)c2)NC(=O)CN(C)C(=O)[C@H](CC2CCCCC2)N(C)C(=O)[C@@H]2CCN2C(=O)[C@H](C)N(C)C1=O [Compound 920] ([NMeL]I[NMeA][Aze][NMeCha][Sar][hPhe(3-Cl-4-CF3)][NMePhe(4-F)][Ac5c][NMeGly(cPent)][NMeD]-NMe2; lactam N-11)	15 nM	100 to 500 nM
CC[C@H](C)[C@@H]1NC(=O)[C@H](CC)N(C)C(=O)C[C@@H](C(=O)N2C3CCC2COC3)N(C)C(=O)[C@H](C2CCCCC2)N(C)C(=O)C2(CCCC2)NC(=O)[C@@H]2CCCN2C(=O)[C@H](CCc2ccc(C(F)(F)F)c(Cl)c2)NC(=O)CN(C)C(=O)[C@H](Cc2ccc(C)cc2)N(C)C(=O)CN(C)C(=O)CN(C)C1=O [Compound 1963] ([NMeAbu]I[Sar][Sar][NMePhe(4-Me)][Sar][hPhe(3-Cl-4-CF3)]P[Ac5c][NMeChg][NMeD]-{3Oxa8azabicyclo(3.2.1)octane}; lactam N-11)	0.63 nM	50 to 100 nM
